Results from patent publication US7446104B2, “Phenylalkynes” (Ortho-McNeil Pharmaceutical, Inc., priority 2001, dated 2008).

The molecules below were run against T1, human histamine H3 receptor (Homo sapiens, UniProt Q9Y5N1) (assay: [3H]-N-methylhistamine binding). Settings: not given.
T1 construct: One microgram of supercoiled H3 receptor cDNA was added to the cells and mixed; expressed in transfected cells; membranes prepared from cell pellets
Protocol: Transfection of Cells with Human Histamine Receptor
A 10 cm tissue culture dish with a confluent monolayer of SK-N-MC cells was split two days prior to transfection. Using sterile technique the media were removed and the cells were detached from the dish by the addition of trypsin. One fifth of the cells were then placed onto a new 10 cm dish. Cells were grown in a 37° C. incubator with 5% CO2 in Minimal Essential Media Eagle with 10% Fetal Bovine Serum. After two days cells were approximately 80% confluent. These were removed from the dish with trypsin and pelleted in a clinical centrifuge. The pellet was then re-suspended in 400 μL complete media and transferred to an electroporation cuvette with a 0.4 cm gap between the electrodes. One microgram of supercoiled H3 receptor cDNA was added to the cells and mixed. The voltage for the electroporation was set at 0.25 kV, the capacitance was set at 960 μF. After electroporation the cells were diluted into 10 mL complete media and plated onto four 10 cm dishes. Because of the variability in the efficiency of electroporation, four different concentrations of cells were plated. The ratios used were; 1:20, 1:10, 1:5, with the remainder of the cells being added to the fourth dish. The cells were allowed to recover for 24 hours before adding the selection media (complete media with 600 μg/mL G418). After 10 days dishes were analyzed for surviving colonies of cells. Dishes with well isolated colonies were used. Cells from individual colonies were isolated and tested. SK-N-MC cells were used because they give efficient coupling for inhibition of adenylate cyclase. The clones that gave the most robust inhibition of adenylate cyclase in response to histamine were used for further study.
[^3H]-N-methylhistamine Binding
Cell pellets from histamine H3 receptor-expressing SK-N-MC cells were homogenized in 20 mM Tris HCl/0.5 mM EDTA. Supernatants from a 800 g spin were collected, recentrifuged at 30,000 g for 30 min. Pellets were re-homogenized in 50 mM Tris/5 mM EDTA (pH 7.4). Membranes were incubated with 0.8 nM [^3H]-N-methylhistamine plus/minus test compounds for 45 min at 25° C. and harvested by rapid filtration over GF/C glass fiber filters (pretreated with 0.3% polyethylenimine) followed by four washes with ice cold buffer. Filters were dried, added to 4 mL scintillation cocktail and then counted on a liquid scintillation counter. Non-specific binding was defined with 10 μM histamine.

T1 sequence (Q9Y5N1 whole entry): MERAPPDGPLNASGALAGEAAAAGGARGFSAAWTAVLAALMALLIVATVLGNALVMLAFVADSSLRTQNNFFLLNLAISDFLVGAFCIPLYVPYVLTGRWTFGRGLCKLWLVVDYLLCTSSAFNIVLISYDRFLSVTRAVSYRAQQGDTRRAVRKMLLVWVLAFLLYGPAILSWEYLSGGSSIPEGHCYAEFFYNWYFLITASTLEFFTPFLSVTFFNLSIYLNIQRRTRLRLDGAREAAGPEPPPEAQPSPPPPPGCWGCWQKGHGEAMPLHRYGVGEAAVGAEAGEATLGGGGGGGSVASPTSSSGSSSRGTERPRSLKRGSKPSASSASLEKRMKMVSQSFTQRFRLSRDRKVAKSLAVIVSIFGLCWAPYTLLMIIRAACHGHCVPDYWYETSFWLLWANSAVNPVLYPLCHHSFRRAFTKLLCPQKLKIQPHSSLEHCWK

Going from `CN1CCN(Cc2ccc(C#CCCN3CCCCC3)cc2)CC1` [Example 32, 1-Methyl-4-[4-(4-piperidin-1-yl-but-1-ynyl)-benzyl]-piperazine] to `C(#Cc1ccc(CN2CCNCC2)cc1)CCN1CCCCC1` [Example 38, 1-[4-(4-Piperidin-1-yl-but-1-ynyl)-benzyl]-piperazine], the Ki rises from 0.7 nM to 1.3 nM (1.9-fold). The first binds more tightly here.

First: C(#Cc1ccc(CN2CCN(Cc3ccccc3)CC2)cc1)CCN1CCCCC1 [Example 36, 1-Benzyl-4-[4-(4-piperidin-1-yl-but-1-ynyl)-benzyl]-piperazine]
Second: FC(F)(F)c1cccc(N2CCN(Cc3cccc(C#CCCN4CCCCC4)c3)CC2)c1 [Example 43, 1-[3-(4-Piperidin-1-yl-but-1-ynyl)-benzyl]-4-(3-trifluoromethyl-phenyl)-piperazine]
The Ki of the first is 10-fold lower: 9 nM for the first, 91 nM for the second.

Going from `C(#Cc1cccc(CN2CCCCC2c2cccnc2)c1)CCN1CCCCC1` (stereo not shown) [Example 42, 1-[3-(4-Piperidin-1-yl-but-1-ynyl)-benzyl]-1,2,3,4,5,6-hexahydro-[2,3′]bipyridinyl] to `CN(CCc1c[nH]c2ccccc12)Cc1cccc(C#CCCN2CCCCC2)c1` [Example 52, [2-(1H-Indol-3-yl)-ethyl]-methyl-[3-(4-piperidin-1-yl-but-1-ynyl)-benzyl]-amine], the Ki falls from 11 nM to 2 nM (5.5-fold). The second binds more tightly here.

Same assay, conditions: membranes of histamine H3 receptor-expressing SK-N-MC cells; 0.8 nM [3H]-N-methylhistamine; 45 min at 25° C.; read-out: Ki

`C(#Cc1ccc(CN2CCCCC2)cc1)CCN1CCCCC1` [Example 14, 1-[4-(4-Piperidin-1-ylmethyl-phenyl)-but-3-ynyl]-piperidine] and `C(#Cc1ccc(CN2CCCCC2)cc1)CCN1CCCC1` [Example 18, 1′-[4-(4-Pyrrolidin-1-yl-but-1-ynyl)-benzyl]-piperidine] are within 1.5-fold of each other in Ki: 1.6 nM for the first, 2 nM for the second.

`C(#Cc1cccc(CN2CCCCC2)c1)CCN1CCCCC1` [Example 15, 1-[3-(4-Piperidin-1-yl-but-1-ynyl)-benzyl]-piperidine] and `C(#Cc1cccc(CN2CCCC2)c1)CCN1CCCCC1` [Example 55, 1-[4-(3-Pyrrolidin-1-ylmethyl-phenyl)-but-3-ynyl]-piperidine] are within 1.5-fold of each other in Ki: 0.8 nM for the first, 1 nM for the second.

Going from `CCN(CC)CCC#Cc1ccc(CN2CCCCC2)cc1` [Example 19, Diethyl-[4-(4-piperidin-1-ylmethyl-phenyl)-but-3-ynyl]-amine] to `CCN(CC)Cc1ccc(C#CCCN2CCCCC2)cc1` [Example 25, Diethyl-[4-(4-piperidin-1-yl-but-1-ynyl)-benzyl]-amine], the Ki falls from 2.4 nM to 1.1 nM (2.2-fold). The second binds more tightly here.

Compared with `C(#Cc1ccc(CN2CCCCC2)cc1)CCN1CCSCC1` [Example 20, 4-[4-(4-Piperidin-1-ylmethyl-phenyl)-but-3-ynyl]-thiomorpholine], `C(#Cc1ccc(CN2CCCC2)cc1)CCN1CCCCC1` [Example 23, 1-[4-(4-Pyrrolidin-1-ylmethyl-phenyl)-but-3-ynyl]-piperidine] is 4.3-fold lower in Ki: 6 nM for the first, 1.4 nM for the second. The second binds more tightly here.

Compared with `C(#Cc1ccc(CN2CCCCC2)cc1)CCN1CCOCC1` [Example 21, 4-[4-(4-Piperidin-1-ylmethyl-phenyl)-but-3-ynyl]-morpholine], `C(#Cc1ccc(CN2CCOCC2)cc1)CCN1CCCCC1` [Example 24, 4-[4-(4-Piperidin-1-yl-but-1-ynyl)-benzyl]-morpholine] is 2.7-fold lower in Ki: 15 nM for the first, 5.5 nM for the second. The second binds more tightly here.

Going from `CN1CCN(CCC#Cc2ccc(CN3CCCCC3)cc2)CC1` [Example 22, 1-Methyl-4-[4-(4-piperidin-1-ylmethyl-phenyl)-but-3-ynyl]-piperazine] to `CC(C)N1CCN(Cc2ccc(C#CCCN3CCCCC3)cc2)CC1` [Example 39, 1-Isopropyl-4-[4-(4-piperidin-1-yl-but-1-ynyl)-benzyl]-piperazine], the Ki falls from 21 nM to 1.3 nM (16-fold). The second binds more tightly here.

Going from `C(#Cc1ccc(CN2CCC(Cc3ccccc3)CC2)cc1)CCN1CCCCC1` [Example 26, 1-{4-[4-(4-Benzyl-piperidin-1-ylmethyl)-phenyl]-but-3-ynyl}-piperidine] to `C(#Cc1ccc(CN2CCN(c3ccccc3)CC2)cc1)CCN1CCCCC1` [Example 35, 1-Phenyl-4-[4-(4-piperidin-1-yl-but-1-ynyl)-benzyl]-piperazine], the Ki rises from 2.9 nM to 7 nM (2.4-fold). The first binds more tightly here.

`OC1CCN(Cc2ccc(C#CCCN3CCCCC3)cc2)CC1` [Example 27, 1-[4-(4-Piperidin-1-yl-but-1-ynyl)-benzyl]-piperidin-4-ol] and `NC(=O)C1CCN(Cc2ccc(C#CCCN3CCCCC3)cc2)CC1` [Example 30, 1-[4-(4-Piperidin-1-yl-but-1-ynyl)-benzyl]-piperidine-4-carboxylic acid amide] are within 1.5-fold of each other in Ki: 1.7 nM for the first, 1.6 nM for the second.

Compared with `OCCC1CCCCN1Cc1ccc(C#CCCN2CCCCC2)cc1` (stereo not shown) [Example 28, 2-{1-[4-(4-Piperidin-1-yl-but-1-ynyl)-benzyl]-piperidin-2-yl}-ethanol], `C(#Cc1ccc(CN2CCCC3CCCCC32)cc1)CCN1CCCCC1` (stereo not shown) [Example 29, 1-[4-(4-Piperidin-1-yl-but-1-ynyl)-benzyl]-decahydro-quinoline] is 2-fold higher in Ki: 0.4 nM for the first, 0.8 nM for the second.

First: C(#Cc1ccc(CN2CCC3(CC2)OCCO3)cc1)CCN1CCCCC1 [Example 31, 8-[4-(4-Piperidin-1-yl-but-1-ynyl)-benzyl]-1,4-dioxa-8-aza-spiro[4.5]decane]
Second: CC(C)(C)OC(=O)N1CCN(Cc2ccc(C#CCCN3CCCCC3)cc2)CC1 [Example 37, 4-[4-(4-Piperidin-1-yl-but-1-ynyl)-benzyl]-piperazine-1-carboxylic acid tert-butyl ester]
The Ki of the first is 8.3-fold lower: 1.8 nM for the first, 15 nM for the second. The first binds more tightly here.

Compared with `C(#Cc1ccc(CNC2CCCCC2)cc1)CCN1CCCCC1` [Example 33, Cyclohexyl-[4-(4-piperidin-1-yl-but-1-ynyl)-benzyl]-amine], `C(#Cc1ccc(CNC2CCc3ccccc32)cc1)CCN1CCCCC1` (stereo not shown) [Example 34, Indan-1-yl-[4-(4-piperidin-1-yl-but-1-ynyl)-benzyl]-amine] is 2.6-fold higher in Ki: 0.5 nM for the first, 1.3 nM for the second. The first binds more tightly here.

Compared with `CCN(CC)C(=O)C1CCCN(Cc2cccc(C#CCCN3CCCCC3)c2)C1` (stereo not shown) [Example 41, 1-[3-(4-Piperidin-1-yl-but-1-ynyl)-benzyl]-piperidine-3-carboxylic acid diethylamide], `NC(=O)C1CCN(Cc2cccc(C#CCCN3CCCCC3)c2)CC1` [Example 45, 1-[3-(4-Piperidin-1-yl-but-1-ynyl)-benzyl]-piperidine-4-carboxylic acid amide] is 1.5-fold lower in Ki: 3 nM for the first, 2 nM for the second. The second binds more tightly here.

Going from `C(#Cc1cccc(CN2CCN(c3ncccn3)CC2)c1)CCN1CCCCC1` [Example 44, 2-{4-[3-(4-Piperidin-1-yl-but-1-ynyl)-benzyl]-piperazin-1-yl}-pyrimidine] to `C(#Cc1cccc(CN2CCSCC2)c1)CCN1CCCCC1` [Example 48, 4-[3-(4-Piperidin-1-yl-but-1-ynyl)-benzyl]-thiomorpholine], the Ki falls from 9 nM to 1 nM (9-fold). The second binds more tightly here.

`CN(CCc1ccccn1)Cc1cccc(C#CCCN2CCCCC2)c1` [Example 46, Methyl-[3-(4-piperidin-1-yl-but-1-ynyl)-benzyl]-(2-pyridin-2-yl-ethyl)-amine] and `COc1ccc(CCN(C)Cc2cccc(C#CCCN3CCCCC3)c2)cc1OC` [Example 47, [2-(3,4-Dimethoxy-phenyl)-ethyl]-methyl-[3-(4-piperidin-1-yl-but-1-ynyl)-benzyl]-amine] are within 1.5-fold of each other in Ki: 4 nM for the first, 3 nM for the second.

Going from `C=CCN(Cc1cccc(C#CCCN2CCCCC2)c1)C1CCCC1` [Example 49, Allyl-cyclopentyl-[3-(4-piperidin-1-yl-but-1-ynyl)-benzyl]-amine] to `C(#Cc1cccc(CN2CCSC2)c1)CCN1CCCCC1` [Example 51, 1-[4-(3-Thiazolidin-3-ylmethyl-phenyl)-but-3-ynyl]-piperidine], the Ki falls from 2 nM to 1 nM (2-fold). The second binds more tightly here.

First: C(#Cc1cccc(CN2CCOCCOCCOCC2)c1)CCN1CCCCC1 [Example 50, 10-[3-(4-Piperidin-1-yl-but-1-ynyl)-benzyl]-1,4,7-trioxa-10-aza-cyclododecane]
Second: C(#Cc1cccc(CN2CCCCCCCCCCCC2)c1)CCN1CCCCC1 [Example 56, 1-[3-(4-Piperidin-1-yl-but-1-ynyl)-benzyl]-azacyclotridecane]
The Ki of the first is 6.5-fold lower: 2 nM for the first, 13 nM for the second. The first binds more tightly here.

`C(#Cc1cccc(CNc2ccccc2)c1)CCN1CCCCC1` [Example 54, Phenyl-[3-(4-piperidin-1-yl-but-1-ynyl)-benzyl]-amine] showed a Ki of 110 nM.

Same assay, conditions: read-out: Ki

In the case of `O=C1NCN(c2ccccc2)C12CCN(Cc1cccc(C#CCCN3CCCCC3)c1)CC2` [Example 40, 1-Phenyl-8-[3-(4-piperidin-1-yl-but-1-ynyl)-benzyl]-1,3,8-triaza-spiro[4.5]decan-4-one], the Ki is reported as 2 nM.
